Experimental data: publication PMC3983201, “6-Methoxyflavanones as Bitter Taste Receptor Blockers for hTAS2R39” (PLoS ONE, 2014)
Like-named read-outs stand apart in the source and are kept apart here. One block for each molecule: values may come before it.

Assays:
[1] = molecular target: T1, hTAS2R39 (Homo sapiens, UniProt P59534); assay: Calcium assay of hTAS2R39 activation/inhibition in HEK293 T-Rex Flp-In cells; type: cell-based; details: for reduction of ECG response on hTAS2R39 (screening for inhibition): simultaneous application of 200 μM ECG and 250 μM flavanone, inhibition when response ratio <1; for EC80 on hTAS2R39: agonist dose-response curve
T1 construct: first 45 amino acids of rat somatostatin receptor type 3 (sst3 membrane-targeting tag) (N); expressed in transfected cells; host or cells: HEK293 T-Rex Flp-In cells stably expressing Gα16-gust44; receptor in pcDNA5/FRT, induced with doxycycline
T1 sequence (P59534 1-338): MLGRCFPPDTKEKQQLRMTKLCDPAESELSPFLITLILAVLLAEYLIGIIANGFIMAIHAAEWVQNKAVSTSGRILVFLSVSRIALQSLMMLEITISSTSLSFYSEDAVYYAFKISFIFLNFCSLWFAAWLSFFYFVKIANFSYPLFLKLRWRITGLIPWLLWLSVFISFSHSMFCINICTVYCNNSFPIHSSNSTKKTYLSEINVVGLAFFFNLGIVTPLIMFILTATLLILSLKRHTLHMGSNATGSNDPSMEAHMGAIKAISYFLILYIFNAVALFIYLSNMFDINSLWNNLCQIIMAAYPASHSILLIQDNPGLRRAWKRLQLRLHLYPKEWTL

[2] = molecular target: T2, hTAS2R14 (Homo sapiens, UniProt Q9NYV8); assay: Calcium assay of hTAS2R14 activation/inhibition in HEK293 T-Rex Flp-In cells; type: cell-based; details: for IC50, Simultaneous / Threshold, Simultaneous: simultaneous addition, n.b. = no blocking; for EC80 on hTAS2R14: agonist concentration used in inhibition tests
T2 construct: first 45 amino acids of rat somatostatin receptor type 3 (sst3 membrane-targeting tag) (N); expressed in transfected cells; host or cells: HEK293 T-Rex Flp-In cells stably expressing Gα16-gust44; induced with doxycycline
T2 sequence (Q9NYV8 1-317): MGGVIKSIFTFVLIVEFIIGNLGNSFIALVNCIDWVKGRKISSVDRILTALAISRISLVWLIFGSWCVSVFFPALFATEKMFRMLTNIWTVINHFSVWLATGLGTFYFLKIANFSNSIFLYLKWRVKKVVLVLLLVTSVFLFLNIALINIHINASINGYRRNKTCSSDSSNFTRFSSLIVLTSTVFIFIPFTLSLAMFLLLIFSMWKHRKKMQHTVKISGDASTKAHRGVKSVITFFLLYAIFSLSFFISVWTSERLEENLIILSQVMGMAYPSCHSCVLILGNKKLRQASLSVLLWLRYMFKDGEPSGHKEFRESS
Description: For functional expression of the human bitter taste receptor hTAS2R39, HEK293 T-Rex Flp-In cells (Invitrogen, San Diego, CA, USA) were used, stably expressing the chimeric G-protein α-subunit Gα16-gust44 (cloned into pcDNA4 (Invitrogen)) and the human bitter receptor genes for hTAS2R39 (cloned into pcDNA5/FRT (Invitrogen)). The bitter receptor gene contained a DNA sequence encoding the first 45 amino acids of rat somatostatin receptor type 3 at its 5′ end (the receptor expression was achieved according to [18] with exception of the HSV-tag), in order to improve membrane targeting of the receptor protein. The same procedure was applied for stable expression of hTAS2R14. Cells were maintained in Dulbecco's Modified Eagle's Medium (DMEM) and 10% (v/v) tetracycline-free FBS (both Lonza, Verviers, Belgium) supplemented with blasticidin (5 μg/mL), geneticin (400 μg/mL) and hygromycin (100 μg/mL) (all from Invitrogen). Cells were grown and maintained at 37 °C and 5% (v/v) CO2.
Cells were seeded into poly-L-lysine-coated (Sigma-Aldrich) 96-well plates (black wall, clear bottom, Greiner bio-one, Frickenhausen, Germany) at a density of 7*10^3 cells in 100 μL/well and cultured for 24 h. Transcription of the receptors was induced by adding 0.25 μg/mL doxycycline (Sigma-Aldrich). […] One hour after loading, cells were washed with Tyrode's buffer and taken up in Tyrode's buffer. Stock solutions of test compounds were prepared in DMSO and diluted to the appropriate concentration in Tyrode's buffer, not exceeding a DMSO concentration of 1% (v/v).
(§1) Two methods of compound administration were applied: simultaneous and stepwise addition of potential antagonist and agonist. The first 17 s before compound addition were used for baseline determination. For the simultaneous method, agonist and potential antagonist were pre-mixed, administered after 17 s, and fluorescence was measured for in total 90 s. For the stepwise method, after 17 s, the potential antagonist was added, fluorescence was measured until 120 s, and after 120 s the agonist was added and measured for another 120 s, in total 240 s. […] Each experiment was performed at least in duplicate in separate experiments (as indicated for each figure).
Data processing was done as reported previously. In brief, SoftMax Pro 5.4 software (Molecular Devices Corporation) was used to plot the fluorescence signals. The fluorescence value (ΔF/F0), representing receptor activity, was calculated by subtracting the baseline fluorescence (F0) prior to loading from the maximum fluorescence (F) after compound addition, divided by the signal of the baseline in order to normalize background fluorescence. Dose-response curves were established as non-linear regression curves using Graph Pad Prism (version 4 for Windows, Graph Pad Software, San Diego, CA, USA). Half-maximal effective concentrations (EC50) and half-maximal inhibitory concentrations (IC50) were calculated. Error bars reflect the standard error of the mean (SEM). Statistical analysis was performed in Graph Pad Prism (one-way ANOVA at 5% risk level, followed by Bonferroni's post hoc test).
Inhibition was indicated when [drawing 1] . In case of indicated inhibition, flavanones were applied at different concentrations, in order to test for dose-dependent inhibition, at the EC80 concentration of the agonist. […] To investigate the specificity of flavanones for inhibition of hTAS2R39 and hTAS2R14, another bitter taste receptor, hTAS2R16 (not known to be activated by flavonoids), was used in inhibition experiments ( File S3 ) towards its agonist salicin.

[3] = molecular target: T3, hTAS2R16 (Homo sapiens, UniProt Q9NYV7); assay: Calcium assay of hTAS2R16 activation/inhibition (salicin as agonist); type: cell-based
T3 construct: expressed in transfected cells; host or cells: induced versus non-induced cells
T3 sequence (Q9NYV7 1-291): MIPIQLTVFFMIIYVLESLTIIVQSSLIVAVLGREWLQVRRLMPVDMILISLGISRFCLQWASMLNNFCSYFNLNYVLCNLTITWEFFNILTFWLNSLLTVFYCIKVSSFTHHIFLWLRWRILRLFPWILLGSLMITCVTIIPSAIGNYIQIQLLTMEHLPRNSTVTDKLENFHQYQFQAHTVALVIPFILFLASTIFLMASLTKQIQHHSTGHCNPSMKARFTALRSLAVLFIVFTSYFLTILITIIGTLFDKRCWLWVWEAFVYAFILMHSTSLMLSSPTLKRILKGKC
Description: Cells were seeded into poly-L-lysine-coated (Sigma-Aldrich) 96-well plates (black wall, clear bottom, Greiner bio-one, Frickenhausen, Germany) at a density of 7*10^3 cells in 100 μL/well and cultured for 24 h. Transcription of the receptors was induced by adding 0.25 μg/mL doxycycline (Sigma-Aldrich). Cells were induced for 24 h and then loaded with the calcium-sensitive fluorescent dye Fluo-4-AM (2.5 μM, Invitrogen), which was dissolved in Tyrode's buffer containing 5% (v/v) tetracycline-free FBS (Lonza). One hour after loading, cells were washed with Tyrode's buffer and taken up in Tyrode's buffer. Stock solutions of test compounds were prepared in DMSO and diluted to the appropriate concentration in Tyrode's buffer, not exceeding a DMSO concentration of 1% (v/v).
as §1, with “Receptor activation or inhibition was measured via intracellular Ca^2+ release in a FlexStation II 384 or FlexStation III (Molecular Devices Corporation, Sunnyvale, CA, USA) by measuring fluorescence (excitation 485 nm/emission 520 nm) for either 90 s or 240 s at 37°C. Two” for “Two”
Screening for hTAS2R39 inhibition by flavanones was performed with simultaneous application of agonist (200 μM ECG) and putative antagonist (250 μM flavanone). Inhibition was indicated when [drawing 1] . In case of indicated inhibition, flavanones were applied at different concentrations, in order to test for dose-dependent inhibition, at the EC80 concentration of the agonist. Another agonist of hTAS2R39, denatonium benzoate, was used in inhibition experiments at 1.7 mM (EC80). hTAS2R14 inhibition was tested with 640 μM ECG or 70 μM genistein as agonists, representing their respective EC80 concentrations. To investigate the specificity of flavanones for inhibition of hTAS2R39 and hTAS2R14, another bitter taste receptor, hTAS2R16 (not known to be activated by flavonoids), was used in inhibition experiments ( File S3 ) towards its agonist salicin.
SUPPORTING INFORMATION to the article “6-Methoxyflavanones as Bitter Taste Receptor Blockers for hTAS2R39” by Roland, WSU; Gouka, RJ; Gruppen, H; Driesse, M; van Buren, L; Smit, G; Vincken, J-P File S3 Investigation of identified inhibitors on hTAS2R16.
To investigate whether the hTAS2R39 inhibitors 6,3’-dimethoxyflavanone (3), 4’- fluoro-6-methoxyflavanone (6), and 6-methoxyflavanone (11) were able to inhibit a bitter receptor not known for flavonoid activation, hTAS2R16 was selected for inhibition experiments. Measuring dose-response curves of the hTAS2R16 agonist […]
Figure S3. Inhibition of response of 10 mM salicin (---) on hTAS2R16 (induced (●), non-induced (○)) by 4’-fluoro-6-methoxyflavanone (6) after simultaneous addition (A) and stepwise addition (B), by 6,3’-dimethoxyflavanone (3) after simultaneous addition (C) and stepwise addition (D), and by 6-methoxyflavanone (11) after simultaneous addition (E) and stepwise addition (F). […]

[4] = molecular target: T1, hTAS2R39; design: method as in PMID 24117141; details: cited from earlier work
[5] = tested on: bitter taste; design: method as in PMID 16028996; details: in-vivo sensory masking, unknown mechanism; cited from earlier work
[6] = inhibition of hTAS2R14 response to 70 μM genistein
[7] = inhibition of hTAS2R14 response to 640 μM ECG
[8] = 0 μM 4′-fluoro-6-methoxyflavanone (6), stepwise addition, read-out: EC50 of agonist on hTAS2R39

inhibition of hTAS2R39 activation ([1]; data not shown): unable to inhibit hTAS2R39 activation
SMILES: COc1ccc2oc(-c3ccccc3)cc(=O)c2c1 [6-methoxyflavone, reference compound]

IC50, Simultaneous [2, 6]: n.b. | Threshold, Simultaneous [2, 6]: n.b. | inhibition of salicin response on hTAS2R16 ([3]; 10 mM salicin, simultaneous and stepwise addition): no inhibition
SMILES: COc1cccc(C2CC(=O)c3cc(OC)ccc3O2)c1 (stereo not drawn) [Compound 3, 6,3′-Dimethoxyflavanone]
IC50, Simultaneous [2, 7]: n.b. | Threshold, Simultaneous [2, 7]: n.b. | IC50 ([2]; inhibition of hTAS2R14 response to 640 μM ECG, stepwise addition): ~250 µM

SMILES: O=C1C[C@@H](c2ccc(O)c(O)c2)Oc2cc(O)cc(O)c21 [Compound 4, Eriodictyol]
activation of hTAS2R39 in a previous study [4]: a activated hTAS2R39 in a previous study [16], but was selected for testing as antagonist due to ability to reduce bitter taste perception in sensory tests [9]. | reduction of the bitter taste of different chemical classes of bitter molecules [5]: up to 40%

SMILES: O=C1CC(c2ccccc2)Oc2ccccc21 (stereo not drawn) [Compound 5, Flavanone]
activation of hTAS2R39 in a previous study [4]: b no activation of hTAS2R39 in a previous study [16]. | reduction of ECG response on hTAS2R39 (screening for inhibition) [1]: did not show inhibitory activity

SMILES: O=C1CC(c2ccccc2)Oc2ccc(O)cc21 (stereo not drawn) [Compound 8, 6-Hydroxyflavanone]
reduction of ECG response on hTAS2R39 (screening for inhibition) [1]: did not show inhibitory activity

SMILES: O=C1CC(c2ccc(O)cc2)Oc2ccccc21 (stereo not drawn) [Compound 10, 4′-Hydroxyflavanone]
activation of hTAS2R39 in a previous study [4]: b no activation of hTAS2R39 in a previous study [16].

SMILES: COc1ccc2c(c1)OC(c1ccccc1)CC2=O (stereo not drawn) [Compound 12, 7-Methoxyflavanone]
reduction of ECG response on hTAS2R39 (screening for inhibition) [1]: did not show inhibitory activity

SMILES: COc1ccc(C2CC(=O)c3ccccc3O2)cc1 (stereo not drawn) [Compound 13, 4′-Methoxyflavanone]
reduction of ECG response on hTAS2R39 (screening for inhibition) [1]: did not show inhibitory activity

EC50 [1, 8]: 659 ± 334 µM | EC80 on hTAS2R39 [1]: 1700 µM | EC50 ([1]; agonist dose-response curve (data not shown), read-out: EC50 on hTAS2R39): 711 µM
SMILES: CC[N+](CC)(CC(=O)Nc1c(C)cccc1C)Cc1ccccc1 [Denatonium benzoate, denatonium benzoate, reference compound]

EC50 [1, 8]: 128 ± 82 µM | EC80 on hTAS2R39 [1]: 200 µM | EC80 on hTAS2R14 [2]: 640 µM
SMILES: O=C(O[C@@H]1Cc2c(O)cc(O)cc2O[C@@H]1c1ccc(O)c(O)c1)c1cc(O)c(O)c(O)c1 [ECG, Epicatechin gallate, reference compound]

EC80 on hTAS2R14 [2]: 70 µM
SMILES: O=c1c(-c2ccc(O)cc2)coc2cc(O)cc(O)c12 [genistein, reference compound]

SMILES: COc1cc([C@@H]2CC(=O)c3c(O)cc([O-])cc3O2)ccc1O.[Na+] [homoeriodictyol Na-salt, reference compound]
reduction of the bitter taste of different chemical classes of bitter molecules [5]: up to 40%

EC80 on hTAS2R16 ([3]; agonist dose-response curve): 10000 µM
SMILES: OCc1ccccc1O[C@@H]1O[C@H](CO)[C@@H](O)[C@H](O)[C@H]1O [salicin, reference compound]
